# In the NIST ThermoML archive (doi:10.1021/acs.jced.5b00051):
# Numbers after ± are expanded uncertainties.
# Assay: molar heat capacity at constant pressure
# Details: 307.15 K; 101.33 kPa; Liquid; Large sample (1 g) DSC
row,molar heat capacity at constant pressure [J/K/mol],SMILES
1,358.6 ± 5.6,COCCOCCOCCO [2-[2-(2-methoxyethoxy)ethoxy]ethanol]
2,364.2 ± 5.6,"CCCCOCCOCCO [3,6-dioxa-1-decanol]"
3,578.4 ± 9,CCCCCCCCOCCOCCOCCO [2-[2-[2-(octyloxy)ethoxy]ethoxy]ethanol]

row,SMILES,molar heat capacity at constant pressure [J/K/mol]
1,CCCCOCCO [2-butoxyethan-1-ol],277.5 ± 4.3

# Same assay, conditions: 309.15 K; 101.33 kPa; Liquid; Large sample (1 g) DSC
row,molar heat capacity at constant pressure [J/K/mol],SMILES
1,359.1 ± 5.6,COCCOCCOCCO [2-[2-(2-methoxyethoxy)ethoxy]ethanol]
2,365.1 ± 5.7,"CCCCOCCOCCO [3,6-dioxa-1-decanol]"
3,579.5 ± 9,CCCCCCCCOCCOCCOCCO [2-[2-[2-(octyloxy)ethoxy]ethoxy]ethanol]

row,SMILES,molar heat capacity at constant pressure [J/K/mol]
1,CCCCOCCO [2-butoxyethan-1-ol],278.5 ± 4.3

# Same assay, conditions: 311.15 K; 101.33 kPa; Liquid; Large sample (1 g) DSC
row,molar heat capacity at constant pressure [J/K/mol],SMILES
1,359.6 ± 5.6,COCCOCCOCCO [2-[2-(2-methoxyethoxy)ethoxy]ethanol]
2,366 ± 5.7,"CCCCOCCOCCO [3,6-dioxa-1-decanol]"
3,580.6 ± 9,CCCCCCCCOCCOCCOCCO [2-[2-[2-(octyloxy)ethoxy]ethoxy]ethanol]

row,SMILES,molar heat capacity at constant pressure [J/K/mol]
1,CCCCOCCO [2-butoxyethan-1-ol],279.5 ± 4.3

# Same assay, conditions: 313.15 K; 101.33 kPa; Liquid; Large sample (1 g) DSC
row,molar heat capacity at constant pressure [J/K/mol],SMILES
1,360.1 ± 5.6,COCCOCCOCCO [2-[2-(2-methoxyethoxy)ethoxy]ethanol]
2,366.9 ± 5.7,"CCCCOCCOCCO [3,6-dioxa-1-decanol]"
3,581.7 ± 9,CCCCCCCCOCCOCCOCCO [2-[2-[2-(octyloxy)ethoxy]ethoxy]ethanol]

row,SMILES,molar heat capacity at constant pressure [J/K/mol]
1,CCCCOCCO [2-butoxyethan-1-ol],280.5 ± 4.3

# Same assay, conditions: 315.15 K; 101.33 kPa; Liquid; Large sample (1 g) DSC
row,molar heat capacity at constant pressure [J/K/mol],SMILES
1,360.6 ± 5.6,COCCOCCOCCO [2-[2-(2-methoxyethoxy)ethoxy]ethanol]
2,367.9 ± 5.7,"CCCCOCCOCCO [3,6-dioxa-1-decanol]"
3,582.9 ± 9,CCCCCCCCOCCOCCOCCO [2-[2-[2-(octyloxy)ethoxy]ethoxy]ethanol]

row,SMILES,molar heat capacity at constant pressure [J/K/mol]
1,CCCCOCCO [2-butoxyethan-1-ol],281.5 ± 4.4

# Same assay, conditions: 317.15 K; 101.33 kPa; Liquid; Large sample (1 g) DSC
row,molar heat capacity at constant pressure [J/K/mol],SMILES
1,361.2 ± 5.6,COCCOCCOCCO [2-[2-(2-methoxyethoxy)ethoxy]ethanol]
2,368.8 ± 5.7,"CCCCOCCOCCO [3,6-dioxa-1-decanol]"
3,584.1 ± 9,CCCCCCCCOCCOCCOCCO [2-[2-[2-(octyloxy)ethoxy]ethoxy]ethanol]

row,SMILES,molar heat capacity at constant pressure [J/K/mol]
1,CCCCOCCO [2-butoxyethan-1-ol],282.5 ± 4.4

# Same assay, conditions: 319.15 K; 101.33 kPa; Liquid; Large sample (1 g) DSC
row,molar heat capacity at constant pressure [J/K/mol],SMILES
1,361.7 ± 5.6,COCCOCCOCCO [2-[2-(2-methoxyethoxy)ethoxy]ethanol]
2,369.8 ± 5.7,"CCCCOCCOCCO [3,6-dioxa-1-decanol]"
3,585.3 ± 9.1,CCCCCCCCOCCOCCOCCO [2-[2-[2-(octyloxy)ethoxy]ethoxy]ethanol]

row,SMILES,molar heat capacity at constant pressure [J/K/mol]
1,CCCCOCCO [2-butoxyethan-1-ol],283.5 ± 4.4

# Same assay, conditions: 321.15 K; 101.33 kPa; Liquid; Large sample (1 g) DSC
row,molar heat capacity at constant pressure [J/K/mol],SMILES
1,362.2 ± 5.6,COCCOCCOCCO [2-[2-(2-methoxyethoxy)ethoxy]ethanol]
2,370.8 ± 5.7,"CCCCOCCOCCO [3,6-dioxa-1-decanol]"
3,586.5 ± 9.1,CCCCCCCCOCCOCCOCCO [2-[2-[2-(octyloxy)ethoxy]ethoxy]ethanol]

row,SMILES,molar heat capacity at constant pressure [J/K/mol]
1,CCCCOCCO [2-butoxyethan-1-ol],284.5 ± 4.4

# Same assay, conditions: 323.15 K; 101.33 kPa; Liquid; Large sample (1 g) DSC
row,molar heat capacity at constant pressure [J/K/mol],SMILES
1,362.8 ± 5.6,COCCOCCOCCO [2-[2-(2-methoxyethoxy)ethoxy]ethanol]
2,371.8 ± 5.8,"CCCCOCCOCCO [3,6-dioxa-1-decanol]"
3,587.7 ± 9.1,CCCCCCCCOCCOCCOCCO [2-[2-[2-(octyloxy)ethoxy]ethoxy]ethanol]

row,SMILES,molar heat capacity at constant pressure [J/K/mol]
1,CCCCOCCO [2-butoxyethan-1-ol],285.5 ± 4.4

# Same assay, conditions: 325.15 K; 101.33 kPa; Liquid; Large sample (1 g) DSC
row,molar heat capacity at constant pressure [J/K/mol],SMILES
1,363.4 ± 5.6,COCCOCCOCCO [2-[2-(2-methoxyethoxy)ethoxy]ethanol]
2,372.8 ± 5.8,"CCCCOCCOCCO [3,6-dioxa-1-decanol]"
3,589 ± 9.1,CCCCCCCCOCCOCCOCCO [2-[2-[2-(octyloxy)ethoxy]ethoxy]ethanol]

row,SMILES,molar heat capacity at constant pressure [J/K/mol]
1,CCCCOCCO [2-butoxyethan-1-ol],286.5 ± 4.4

# Same assay, conditions: 327.15 K; 101.33 kPa; Liquid; Large sample (1 g) DSC
row,molar heat capacity at constant pressure [J/K/mol],SMILES
1,364 ± 5.6,COCCOCCOCCO [2-[2-(2-methoxyethoxy)ethoxy]ethanol]
2,373.8 ± 5.8,"CCCCOCCOCCO [3,6-dioxa-1-decanol]"
3,590.3 ± 9.1,CCCCCCCCOCCOCCOCCO [2-[2-[2-(octyloxy)ethoxy]ethoxy]ethanol]

row,SMILES,molar heat capacity at constant pressure [J/K/mol]
1,CCCCOCCO [2-butoxyethan-1-ol],287.5 ± 4.5

# Same assay, conditions: 329.15 K; 101.33 kPa; Liquid; Large sample (1 g) DSC
row,molar heat capacity at constant pressure [J/K/mol],SMILES
1,364.5 ± 5.6,COCCOCCOCCO [2-[2-(2-methoxyethoxy)ethoxy]ethanol]
2,374.8 ± 5.8,"CCCCOCCOCCO [3,6-dioxa-1-decanol]"
3,591.6 ± 9.2,CCCCCCCCOCCOCCOCCO [2-[2-[2-(octyloxy)ethoxy]ethoxy]ethanol]

row,SMILES,molar heat capacity at constant pressure [J/K/mol]
1,CCCCOCCO [2-butoxyethan-1-ol],288.5 ± 4.5

# Same assay, conditions: 331.15 K; 101.33 kPa; Liquid; Large sample (1 g) DSC
row,molar heat capacity at constant pressure [J/K/mol],SMILES
1,365.1 ± 5.7,COCCOCCOCCO [2-[2-(2-methoxyethoxy)ethoxy]ethanol]
2,375.8 ± 5.8,"CCCCOCCOCCO [3,6-dioxa-1-decanol]"
3,592.9 ± 9.2,CCCCCCCCOCCOCCOCCO [2-[2-[2-(octyloxy)ethoxy]ethoxy]ethanol]

row,SMILES,molar heat capacity at constant pressure [J/K/mol]
1,CCCCOCCO [2-butoxyethan-1-ol],289.6 ± 4.5

# Same assay, conditions: 333.15 K; 101.33 kPa; Liquid; Large sample (1 g) DSC
row,molar heat capacity at constant pressure [J/K/mol],SMILES
1,365.8 ± 5.7,COCCOCCOCCO [2-[2-(2-methoxyethoxy)ethoxy]ethanol]
2,376.9 ± 5.8,"CCCCOCCOCCO [3,6-dioxa-1-decanol]"
3,594.3 ± 9.2,CCCCCCCCOCCOCCOCCO [2-[2-[2-(octyloxy)ethoxy]ethoxy]ethanol]

row,SMILES,molar heat capacity at constant pressure [J/K/mol]
1,CCCCOCCO [2-butoxyethan-1-ol],290.6 ± 4.5

# Same assay, conditions: 335.15 K; 101.33 kPa; Liquid; Large sample (1 g) DSC
row,molar heat capacity at constant pressure [J/K/mol],SMILES
1,366.4 ± 5.7,COCCOCCOCCO [2-[2-(2-methoxyethoxy)ethoxy]ethanol]
2,377.9 ± 5.9,"CCCCOCCOCCO [3,6-dioxa-1-decanol]"
3,595.6 ± 9.2,CCCCCCCCOCCOCCOCCO [2-[2-[2-(octyloxy)ethoxy]ethoxy]ethanol]

row,SMILES,molar heat capacity at constant pressure [J/K/mol]
1,CCCCOCCO [2-butoxyethan-1-ol],291.6 ± 4.5

# Same assay, conditions: 337.15 K; 101.33 kPa; Liquid; Large sample (1 g) DSC
row,molar heat capacity at constant pressure [J/K/mol],SMILES
1,367 ± 5.7,COCCOCCOCCO [2-[2-(2-methoxyethoxy)ethoxy]ethanol]
2,379 ± 5.9,"CCCCOCCOCCO [3,6-dioxa-1-decanol]"
3,597 ± 9.2,CCCCCCCCOCCOCCOCCO [2-[2-[2-(octyloxy)ethoxy]ethoxy]ethanol]

row,SMILES,molar heat capacity at constant pressure [J/K/mol]
1,CCCCOCCO [2-butoxyethan-1-ol],292.6 ± 4.5

# Same assay, conditions: 339.15 K; 101.33 kPa; Liquid; Large sample (1 g) DSC
row,molar heat capacity at constant pressure [J/K/mol],SMILES
1,367.6 ± 5.7,COCCOCCOCCO [2-[2-(2-methoxyethoxy)ethoxy]ethanol]
2,380.1 ± 5.9,"CCCCOCCOCCO [3,6-dioxa-1-decanol]"
3,598.4 ± 9.3,CCCCCCCCOCCOCCOCCO [2-[2-[2-(octyloxy)ethoxy]ethoxy]ethanol]

row,SMILES,molar heat capacity at constant pressure [J/K/mol]
1,CCCCOCCO [2-butoxyethan-1-ol],293.6 ± 4.5
